Columns and labels:
[1] = system: DUSP6; experiment: SHP-77 xenograft single-dose PK/PD study, tumor DUSP6 levels; type: in vivo, mouse; conditions: single oral dose of 30 mg/kg
Excerpt: (§1) The purpose of the study was to assess the anti-tumor activity in difficult KRAS mutated xenograft tumor model using SHP-77 (small cell lung cancer, SCLC; ATCC CRL-2195) by examining the time-dependent effects on MAPK pathway modulation and tumor suppression post-administration of Example 24 and reference compound A122.
(§2) Female CB17-SCID mice at 6-8 weeks old from Vital River Co., LTD. were used for these studies. In order to generate subcutaneous xenograft tumors, each mouse was inoculated at the right flank with tumor cells in 100 μL of PBS and Matrigel matrix in the right hind flank with 1×10^7 cells. Mouse health was monitored daily, and caliper measurements began when tumors were palpable. Tumor volume measurements were determined utilizing the formula 0.5×L×W^2 in which L refers to length and W refers to width of each tumor. When tumors reached an average tumor volume of approximately 100-200 mm^3 for efficacy study and 300-500 mm^3 for single-dose PK/PD study, mice were randomized into treatment groups.
(§3) Mice were treated by oral gavage at 10 mg/kg with either vehicle consisting of DMSO: Solutol HS15: water=10:10:80 (% v/v/v) or compounds (Example 24, A122) in vehicle at indicated doses. For efficacy studies, animals were orally administered daily, tumor volumes and body weights were measured 3 times per week. Study day on efficacy plots indicates the day after which compound treatment was initiated. For single-dose PK/PD study, at the indicated time points after a single dose of Example 24 at the indicated dose levels, tumor samples were collected for PD analysis. RNA extraction and analysis of DUSP6 levels by in tumor tissue were performed as described in Example 134.

[2] = target: WT NRAS-BRAF complex (Homo sapiens (Human), UniProt P01111+P62937); experiment: WT NRAS-BRAF with CYPA interaction assay (TR-FRET); type: biochemical; conditions: WT NRAS
Sequence of WT NRAS-BRAF complex (P01111 whole entry, looked up): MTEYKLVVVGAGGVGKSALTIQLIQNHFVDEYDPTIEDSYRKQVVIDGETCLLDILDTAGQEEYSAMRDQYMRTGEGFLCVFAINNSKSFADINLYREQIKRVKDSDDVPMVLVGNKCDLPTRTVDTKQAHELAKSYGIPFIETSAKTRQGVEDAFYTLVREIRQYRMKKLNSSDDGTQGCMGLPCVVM
Sequence of WT NRAS-BRAF complex (P62937 whole entry, looked up): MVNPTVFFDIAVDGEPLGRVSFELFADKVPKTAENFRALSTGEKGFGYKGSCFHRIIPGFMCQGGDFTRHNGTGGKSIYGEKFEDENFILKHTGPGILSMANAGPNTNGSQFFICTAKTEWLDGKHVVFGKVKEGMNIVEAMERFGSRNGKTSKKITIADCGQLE
Description: (§4) In this example, TR-FRET was used to measure the compound or compound-CYPA dependent disruption of the KRAS G12V-BRAF complex to assess inhibition efficacy. The IC50 ratio between WT KRAS/HRAS/NRAS and KRAS G12V mutant was calculated as selective index, which indicated tolerability and safety profile. Disruption of WT KRAS/HRAS/NRAS-BRAF complex by compounds was detected respectively. In assay buffer containing 25 mM HEPES (PH-7.4,4-(2-hydroxyethyl)-1-piperazineethanesulfonic acid, Thermo, 15630080), 0.002% Tween20, 0.1% BSA, 100 mM NaCl, 5 mM MgCl2, 10 μM GMPPNP (Guanosine 5′-[β,γ-imido]triphosphate trisodium salt hydrate, Sigma, G0635), tagless CYPA and GMPPNP loaded 6His-RAS proteins, and GST-BRAF^RBD were mixed in a well of a 384-well assay plate at final concentrations of 50 nM, 6.25 nM and 1 nM, respectively. Compound was present in plate wells as a 16-point 3-fold dilution series starting at a final concentration of 10 μM and incubated for 3 hours. A mixture of MAb Anti-6His-XL665 (Cisbio, 61HISXLB) and Mab anti-GST-TB cryptate (Cisbio, 61GSTTLB) was then added at a final concentration of 6.67 nM and 0.21 nM, respectively, and the plate was incubated for an additional 1.5 hours. TR-FRET signal was read on a PHERstar FSX microplate reader (Ex320 nm, Em 665/615 nm). Compounds that facilitate disruption of the RAS-BRAF complex were identified as those eliciting a decrease in the TR-FRET ratio relative to DMSO control wells.

[3] = target: hERG potassium channel (Homo sapiens (Human), UniProt Q12809); experiment: hERG potassium channel assay (manual patch clamp, CHO cells); type: cell-based; conditions: for IC50 / IC20: 34° C., manual patch, CHO cells; for IC20: human, CHO cells stably transfected with hERG channel
Sequence of hERG potassium channel (Q12809 whole entry): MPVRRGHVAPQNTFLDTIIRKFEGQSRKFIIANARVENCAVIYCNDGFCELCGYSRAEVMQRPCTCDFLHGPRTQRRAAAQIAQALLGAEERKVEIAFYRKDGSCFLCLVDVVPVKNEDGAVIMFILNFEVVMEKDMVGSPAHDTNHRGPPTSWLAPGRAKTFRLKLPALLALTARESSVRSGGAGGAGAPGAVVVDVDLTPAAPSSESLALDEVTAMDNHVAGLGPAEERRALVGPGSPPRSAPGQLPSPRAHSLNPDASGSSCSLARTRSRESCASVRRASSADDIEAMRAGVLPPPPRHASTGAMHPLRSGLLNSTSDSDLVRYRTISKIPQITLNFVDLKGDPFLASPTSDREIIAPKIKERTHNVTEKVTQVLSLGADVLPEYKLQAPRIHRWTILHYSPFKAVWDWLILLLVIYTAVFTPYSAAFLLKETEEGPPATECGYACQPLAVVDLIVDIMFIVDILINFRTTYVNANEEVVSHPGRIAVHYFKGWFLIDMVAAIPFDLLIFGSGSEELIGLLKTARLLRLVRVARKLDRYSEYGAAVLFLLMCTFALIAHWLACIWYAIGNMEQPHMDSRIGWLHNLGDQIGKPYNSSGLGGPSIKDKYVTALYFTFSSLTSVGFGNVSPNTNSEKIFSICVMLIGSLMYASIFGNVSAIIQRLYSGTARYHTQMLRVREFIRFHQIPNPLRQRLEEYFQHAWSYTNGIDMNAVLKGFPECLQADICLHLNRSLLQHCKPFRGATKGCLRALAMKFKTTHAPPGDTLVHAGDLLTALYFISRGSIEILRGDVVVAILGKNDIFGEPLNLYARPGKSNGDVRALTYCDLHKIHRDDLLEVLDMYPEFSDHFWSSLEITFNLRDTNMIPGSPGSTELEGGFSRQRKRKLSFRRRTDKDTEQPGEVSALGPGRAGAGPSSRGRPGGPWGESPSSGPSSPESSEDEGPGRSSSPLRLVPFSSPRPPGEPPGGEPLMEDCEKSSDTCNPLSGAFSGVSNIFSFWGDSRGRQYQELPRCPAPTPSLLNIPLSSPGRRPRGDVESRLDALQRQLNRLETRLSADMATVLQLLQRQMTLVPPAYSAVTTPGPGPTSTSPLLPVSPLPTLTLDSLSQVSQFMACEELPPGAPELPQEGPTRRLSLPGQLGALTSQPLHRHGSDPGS
Description: The purpose of the test was to screen compounds for the activity on hERG channels as a non-clinical cardiac safety evaluation.
Advanced hERG experiments were performed at near-physiological temperature (34° C.) by HEKA EPC10 manual patch system (heka elektronik, EPC10 amplifier). The CHO cells (B′SYS GmbH) stably transfected hERG channel were initially held at −80 mV, depolarized to voltages between −40 mV (100 ms) to 20 mV (500 ms) to activate the hERG outward currents, and then repolarized to −40 mV (500 ms) to record the hERG tail currents, with an interpulse interval of 15s. The recording environment included: Extracellular solution (in mM): 150 NaCl, 4 KCl, 1.2 CaCl2), 1 MgCl2 and 10 HEPES; pH adjusted to 7.2-7.4 with 5 M NaOH; Intracellular solution (in mM): 125 KCl, 10 NaCl, 5 EGTA, 10 HEPES, 0.1 Na2GTP and 5 MgATP; pH adjusted to 7.2 with 1 M KOH. Current inhibitions in the presence of more than 4 concentrations in quadruplicate were used to fit hERG IC50 by Graphpad prism V8.0.

[4] = target: KRAS G12V-BRAF complex (Homo sapiens (Human), UniProt P01116+P62937, G12V); experiment: KRAS G12V-BRAF with CYPA interaction assay (TR-FRET, selectivity test, Example 132); type: biochemical
Sequence of KRAS G12V-BRAF complex (P01116-2 other isoform, or with tags, fused parts or gaps G12V): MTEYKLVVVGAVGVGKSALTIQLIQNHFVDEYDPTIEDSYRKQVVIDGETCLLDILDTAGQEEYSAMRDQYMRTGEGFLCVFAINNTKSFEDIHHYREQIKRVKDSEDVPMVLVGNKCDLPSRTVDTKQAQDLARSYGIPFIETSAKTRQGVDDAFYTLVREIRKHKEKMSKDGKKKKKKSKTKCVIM
Sequence of KRAS G12V-BRAF complex (P62937 whole entry): as the sequence (P62937 whole entry, looked up) above
Description: as §4

[5] = system: SHP-77 xenograft tumor; experiment: SHP-77 SCLC xenograft efficacy study; type: in vivo; conditions: for mean tumor growth inhibition (TGI): daily 30 mg/kg p.o., 14 days treatment, SHP-77 xenograft
Excerpt: as §1, §2, §3

[6] = system: WT KRAS-BRAF complex; experiment: WT KRAS-BRAF with CYPA interaction assay (TR-FRET); type: biochemical
Description: as §4

CCn1c(-c2cc(N3CCN(C)CC3)cnc2[C@H](C)OC)c2c3cc(ccc31)-c1csc(n1)C[C@H](NC(=O)[C@H]1C[C@@H]1C)C(=O)N1CCC[C@H](N1)C(=O)OCC(C)(C)O2 [Example A122, reference compound]
tumor DUSP6 levels remaining ([1]; 24 h): 4.3%
tumor DUSP6 levels remaining ([1]; 48 hours): 67%
tumor DUSP6 levels remaining ([1]; 72 hours): 126%
IC50 [2]: 10 nM
IC50 [3]: 16900 nM
IC20 [3]: 4600 nM
IC50 [4]: 8 nM
mean tumor growth inhibition (TGI) [5]: 43%

CO[C@@H](C)c1ncc(N2CCN(C)CC2)cc1-c1c2c3cc(cc4c3n1CCC4)-c1csc(n1)C[C@H](NC(=O)[C@H]1[C@H](C)[C@@H]1C)C(=O)N1CCC[C@H](N1)C(=O)OCC(C)(C)C2 (atropisomer, axis not shown; (M)) [Example 24, (1r,2R,3S)-N-[(7S,13S)-(20M)-20-[2-[(1S)-1-methoxyethyl]-5-(4-methylpiperazin-1-yl)-3-pyridyl]-17,17-dimethyl-8,14-dioxo-15-oxa-4-thia-9,21,30,31-tetrazahexacyclo[23.3.1.1^2,5.1^9,13.0^19,27.0^21,26]hentriaconta-1 (28),2,5 (31), 19,25 (29),26-hexaen-7-yl]-2,3-dimethyl-cyclopropanecarboxamide]
tumor DUSP6 levels remaining ([1]; 24 h): 3.9%
tumor DUSP6 levels remaining ([1]; 48 hours): 31%
tumor DUSP6 levels remaining ([1]; 72 hours): 73.7%
IC50 [2]: 35 nM
fold higher hERG IC20 compared to A122 [3]: 3 fold
fold higher hERG IC20 compared to A252 [3]: 4 fold
IC50 [3]: 63700 nM
IC20 [3]: 13800 nM
Selectivity Index (IC50 ratio) WT KRAS/KRAS G12V [6]: 4.6
IC50 [4]: 7 nM
mean tumor growth inhibition (TGI) [5]: 70%
tolerability based on body weights ([5]; daily administration at 30 mg/kg, SHP-77 xenograft mice): well-tolerated

From US20240417410A1, “TRICYCLIC COMPOUNDS FOR THE TREATMENT OF CANCER” (Hoffmann-La Roche Inc., priority 2023, published 2024)
